Reference: a melting point compilation (Tetko et al.; mined from patent text by program, amines drawn as free bases though some values may be those of a salt)

With `COc1ccc2ccc3nc(C(=O)Nc4nnn[nH]4)cn3c2c1` the melting point was 298 to 301 °C. In the case of `Cc1nc(-n2cc(CCc3ccccc3)nn2)sc1C(=O)NCc1ccccc1`, the melting point is reported as 167 to 170 °C. For `CC1CCCC(C)N1S(=O)(=O)N[C@@H](Cc1ccc(NC(=O)c2c(Cl)cccc2Cl)cc1)C(=O)O` (stereo partly drawn), the melting point was 159 °C. Molecule `CCCCCC(=O)NC(=O)N1CC1C#N` (stereo not drawn) has a melting point of 143 to 144 °C. Molecule `Cc1ccc(S(=O)(=O)OCC2Cc3cccc(-c4ccccc4F)c3O2)cc1` (stereo not drawn) has a melting point of 99 to 101 °C. For `O=C1c2ccccc2CN1CCN1CCC(Cc2c[nH]c3ccc(F)cc23)CC1`, the melting point was 175 °C. `O=C(OCc1ccccc1)N1CCC2(CC1)CC(=O)N(OC[N+](=O)[O-])C2=O` gave a melting point of 137 to 139 °C. Work on `COC1C=Cc2ccccc2C1(Nc1ccccc1C)C(N)=S` (stereo not drawn) yielded a melting point of 162 °C. Work on `O=C(O)c1cc[nH]c1Sc1ccc(Cl)cc1Cl` yielded a melting point of 160 to 164 °C. Molecule `Cc1cc(C(=O)CCc2cc(-c3ccc(C(F)(F)F)cc3)nn2C(C)C)ccc1OCC(=O)O` has a melting point of 160 to 163 °C. Work on `c1cc(C2=NOCCS2)ccn1` yielded a melting point of 80 to 82 °C. `CCCCCCCCCCN(C[C@H]1CC[C@H](CN(CCCCCCCCCC)C(=O)Nc2ccc(N(C)C)cc2)CC1)C(=O)Nc1ccc(N(C)C)cc1` showed a melting point of 125 to 127 °C. `O=S(=O)(CCOc1ccc(Cl)cc1)c1ccc(Cl)cc1` showed a melting point of 108 °C. With `CC(O)Cc1c2c(cc3c(=O)cc(C(=O)O)oc13)CCCC2` (stereo not drawn) the melting point was 235 °C. Work on `CN(C)c1cc2nc(C(C)(C)C)sc2cc1N` yielded a melting point of 169 °C. For `COC(=O)Nc1nc(-c2ccccc2)c(-c2nc3ccccc3c(=O)n2-c2ccccc2OC)s1`, the melting point was 228 to 230 °C. For `ClCCOc1ccccc1OCCCl`, the melting point was 55 to 56.5 °C. For `CN(C)CCCCCCNC(=O)c1ccc(-c2cnc3c(c2)N(Cc2ccccc2)C(=O)CN3)cc1`, the melting point was > 200 °C. `COc1cc(NC2CCCC2)n2nc(-c3ccc(F)cc3)c(-c3ccnc(NC4CCCC4)n3)c2c1` gave a melting point of 167 to 169 °C. In the case of `C[C@@H]1Cc2cc(N3C[C@H](CN=[N+]=[N-])OC3=O)ccc2N1C(=O)OCc1ccccc1`, the melting point is reported as 192 to 193 °C. In the case of `COc1cc(C)c(O)c(C(=O)NCCc2ccc(N=C(N)c3cccs3)cc2)c1`, the melting point is reported as 175 to 176 °C. Molecule `Cc1ccc(C[C@@H]2CN(C(=O)/C=C/c3ccc(C(F)(F)F)cc3)CCN2C(=O)c2cc(C(F)(F)F)cc(C(F)(F)F)c2)cc1C` has a melting point of 74 to 76 °C. In the case of `CCCCCCCCCCNS(=O)(=O)c1ccc(OC)cc1`, the melting point is reported as 53 to 54.5 °C. `O=C(Cc1ccncc1)[N+]1([O-])CCC(=C2c3ccc(Cl)cc3CCc3cccnc32)CC1` (stereo not drawn) showed a melting point of 128 to 130 °C. `CC(C)(C)OC(=O)C1CCCN2CC(CBr)C(=O)N12` (stereo not drawn) showed a melting point of 88 to 89 °C. `CC(C)c1nn(-c2ccc(C(F)(F)F)cn2)cc1CCCOc1c(C#N)cccc1CC(=O)O` showed a melting point of 144 to 145 °C. In the case of `OCC=CCOc1nc(F)c(Cl)cc1Cl`, the melting point is reported as 30 °C. In the case of `NC1(CF)CCCNC1=O` (stereo not drawn), the melting point is reported as 132 °C. For `COC[C@H]1CCCN1S(=O)(=O)c1ccc2c(c1)C(=O)C(=O)N2`, the melting point was 161 to 164 °C. Work on `CCCc1c(OCCCCc2ccc3c(Cl)c(OC)c(OC)c(Cl)c3c2)ccc(C(=O)OCc2ccccc2)c1O` yielded a melting point of 66 to 68 °C. In the case of `Nc1nc(O)c2cc(C=Cc3ccc(C(=O)O)cc3)cnc2n1`, the melting point is reported as > 250 °C. In the case of `CCCC/C(=C\C=C\C(=O)O)c1ccc(OC)cc1`, the melting point is reported as 138 to 140 °C. Molecule `COC(=O)C1CC(=O)NC(Cc2ccccc2)C1=O` (stereo not drawn) has a melting point of 146 to 148 °C. `Cn1cc2c3c(c(Cl)cc2n1)CCC3=CC#N` showed a melting point of 224 to 226 °C. For `COCc1nc2c(OC)c3c(=O)n(C)c(COC)nc3c(OC)c2c(=O)n1C`, the melting point was 223 to 224 °C. Work on `CC(C)(OCc1cc2nc(Cl)ccc2n1S(=O)(=O)c1cccc(Cl)c1Cl)C(=O)O` yielded a melting point of 174 °C. `CC(=O)NC(CC=Cc1ccccc1)(COC(C)=O)COC(C)=O` showed a melting point of 88 to 90 °C. In the case of `CCn1nc(-c2ccccc2)c(C(C)=O)c(Nc2ccc(CN)cc2)c1=O`, the melting point is reported as 139 °C. In the case of `Nc1nc(N)c2cc(CCc3ccccc3)ccc2n1`, the melting point is reported as 178 to 180 °C. Work on `CCOc1ccc(CC(=O)O)cc1OCCCc1cn(-c2ccc(C(F)(F)F)cn2)nc1C1CCCCC1` yielded a melting point of 134 to 135 °C. With `CC(C)c1cc(C(C)C)c2c(c1)C1(O)C(=O)c3ccccc3C1(O)O2` (stereo not drawn) the melting point was 205 to 206 °C. In the case of `COc1ncc(C)nc1NS(=O)(=O)c1cccc(Cl)c1Cl`, the melting point is reported as 50 to 60 °C. Molecule `CCCNc1nc(C#N)c(C#N)nc1SCc1ccccc1` has a melting point of 153 to 156 °C. For `CN1CCN(c2ccc3ccccc3n2)CC1`, the melting point was 110 to 112 °C. `CC(C)C(=O)N(Cc1ccccc1)c1nnn(C)n1` showed a melting point of 65 °C. `CCCCCCCCNC(=O)/C=C\SC(=O)CC` showed a melting point of 68 to 70 °C. With `COc1ccc2c3c(c(=O)oc2c1)CN(Cc1ccc(C(F)(F)F)cc1)CC3` the melting point was 203 to 206 °C. With `COc1cc2c(cc1OCc1ccccc1)CCCC(=O)N2Cc1cc(OC)c(OC)c(OC)c1` the melting point was 129 to 130 °C.
